Assay results as given in article PMC10935503 (Acta Pharmaceutica Sinica. B, 2023).

How the values were obtained:
Format in all cases: cell-based
[1] = Cytotoxicity in mock-infected MT-4 cells, MTT method; conditions: human
[2] = test system: HIV-1 K103N + Y181C (RES056); test: microbe, parasite or virus in culture; conditions: for EC50: Human immunodeficiency virus 1, MT4, read-out: EC50 RES056; for RF RES056: resistance fold, EC50 (mutant strain)/EC50 (WT strain); for SI RES056: selectivity index, ratio of CC50/EC50
[3] = test system: HIV-1 WT strain (IIIB); test: Anti-HIV-1 activity in MT-4 cells, MTT method, WT strain IIIB; conditions: for EC50: Human immunodeficiency virus 1, IIIB, MT4, read-out: EC50 IIIB
[4] = test system: HIV-1 Y188L; test: microbe, parasite or virus in culture; conditions: for EC50: Human immunodeficiency virus 1, MT4, read-out: EC50 Y188L; for RF Y188L: resistance fold, EC50 (mutant strain)/EC50 (WT strain); for SI Y188L: selectivity index, ratio of CC50/EC50
[5] = test system: HIV-1 Y181C; test: microbe, parasite or virus in culture; conditions: for EC50: Human immunodeficiency virus 1, MT4, read-out: EC50 Y181C; for RF Y181C: resistance fold, EC50 (mutant strain)/EC50 (WT strain); for SI Y181C: selectivity index, ratio of CC50/EC50
[6] = test system: HIV-1 L100I; test: microbe, parasite or virus in culture; conditions: for EC50: Human immunodeficiency virus 1, MT4, read-out: EC50 L100I; for RF L100I: resistance fold, EC50 (mutant strain)/EC50 (WT strain); for SI L100I: selectivity index, ratio of CC50/EC50
[7] = test system: HIV-1 F227L + V106A; test: microbe, parasite or virus in culture; conditions: for EC50: Human immunodeficiency virus 1, MT4, read-out: EC50 F227L + V106A; for RF F227L + V106A: resistance fold, EC50 (mutant strain)/EC50 (WT strain); for SI F227L + V106A: selectivity index, ratio of CC50/EC50
[8] = test system: HIV-1 E138K; test: microbe, parasite or virus in culture; conditions: for EC50: Human immunodeficiency virus 1, MT4, read-out: EC50 E138K; for RF E138K: resistance fold, EC50 (mutant strain)/EC50 (WT strain); for SI E138K: selectivity index, ratio of CC50/EC50
[9] = test system: HIV-1 K103N; test: microbe, parasite or virus in culture; conditions: for EC50: Human immunodeficiency virus 1, MT4, read-out: EC50 K103N; for RF K103N: resistance fold, EC50 (mutant strain)/EC50 (WT strain); for SI K103N: selectivity index, ratio of CC50/EC50

Cc1cc(C#N)cc(C)c1Oc1nc(Nc2ccc(C#N)cc2)nc2c1[S+]([O-])CCC2 (stereo not shown) [16a, 4-((2-((4-Cyanophenyl)amino)-5-oxido-7,8-dihydro-6H-thiopyrano[3,2-d]pyrimidin-4-yl)oxy)-3,5-dimethylbenzonitrile]
CC50 at 5 days [1]: ≥ 19700 nM
EC50 [2]: 445 ± 95.7 nM
EC50 [3]: 7.99 ± 0.95 nM

Cc1cc(C#N)cc(C)c1Oc1nc(N2CCN(Cc3ccc(S(N)(=O)=O)cc3)CC2)nc2c1SCCC2 [19a, 4-((4-(4-(4-Cyano-2,6-dimethylphenoxy)-7,8-dihydro-6H-thiopyrano[3,2-d]pyrimidin-2-yl)piperazin-1-yl)methyl)benzenesulfonamide]
CC50 at 5 days [1]: 19300 ± 3040 nM
EC50 [3]: > 3080 nM
EC50 IIIB ([3]; MT-4 cells, MTT method, HIV-1 IIIB (WT)): lost potency

Cc1cc(C#N)cc(C)c1Oc1nc(NCCn2ccc(=O)[nH]c2=O)nc2c1SCCC2 [20a, 4-((2-((2-(2,4-Dioxo-3,4-dihydropyrimidin-1(2H)-yl)ethyl)amino)-7,8-dihydro-6H-thiopyrano[3,2-d]pyrimidin-4-yl)oxy)-3,5-dimethylbenzonitrile]
CC50 at 5 days [1]: > 284000 nM
EC50 [2]: > 248000 nM
EC50 [3]: 233 ± 158 nM

Cc1cc(/C=C/C#N)cc(C)c1Oc1nc(NCCn2ccc(=O)[nH]c2=O)nc2c1SCCC2 [20b, (E)-3-(4-((2-((2-(2,4-Dioxo-3,4-dihydropyrimidin-1(2H)-yl)ethyl)amino)-7,8-dihydro-6H-thiopyrano[3,2-d]pyrimidin-4-yl)oxy)-3,5-dimethylphenyl)acrylonitrile]
CC50 at 5 days [1]: 142000 ± 31100 nM
EC50 [2]: 22700 nM
EC50 [3]: 20 ± 19.8 nM

Cc1cc(C)c(Oc2nc(NCCn3ccc(=O)[nH]c3=O)nc3c2SCCC3)c(C)c1 [20c, 1-(2-((4-(Mesityloxy)-7,8-dihydro-6H-thiopyrano[3,2-d]pyrimidin-2-yl)amino)ethyl)pyrimidine-2,4(1H,3H)-dione]
CC50 at 5 days [1]: 152000 ± 28300 nM
EC50 [2]: > 152000 nM
EC50 [3]: 523 ± 466 nM

Cc1cc(C#N)cc(C)c1Oc1nc(NC2CCN(Cc3ccc(C#N)cc3)CC2)nc2c1SCCC2 [23a, 4-((2-((1-(4-Cyanobenzyl)piperidin-4-yl)amino)-7,8-dihydro-6H-thiopyrano[3,2-d]pyrimidin-4-yl)oxy)-3,5-dimethylbenzonitrile]
CC50 at 5 days [1]: 3760 ± 320 nM
EC50 [2]: 263 ± 97.1 nM
EC50 [3]: 4.44 ± 1.39 nM

Cc1cc(C#N)cc(C)c1Oc1nc(NC2CCN(Cc3ccccc3C#N)CC2)nc2c1SCCC2 [23c, 4-((2-((1-(2-Cyanobenzyl)piperidin-4-yl)amino)-7,8-dihydro-6H-thiopyrano[3,2-d]pyrimidin-4-yl)oxy)-3,5-dimethylbenzonitrile]
CC50 at 5 days [1]: 3860 ± 1140 nM
EC50 [2]: 1160 ± 184 nM
EC50 [3]: 7.1 ± 2.69 nM

Cc1cc(C#N)cc(C)c1Oc1nc(NC2CCN(Cc3cccc(S(N)(=O)=O)c3)CC2)nc2c1SCCC2 [23d, 3-((4-((4-(4-Cyano-2,6-dimethylphenoxy)-7,8-dihydro-6H-thiopyrano[3,2-d]pyrimidin-2-yl)amino)piperidin-1-yl)methyl)benzenesulfonamide]
CC50 at 5 days [1]: 5610 ± 3420 nM
EC50 [2]: 790 ± 134 nM
EC50 [3]: 4.65 ± 0.65 nM

CCOC(=O)c1ccc(CN2CCC(Nc3nc4c(c(Oc5c(C)cc(C#N)cc5C)n3)SCCC4)CC2)cc1 [23e, Ethyl 4-((4-((4-(4-cyano-2,6-dimethylphenoxy)-7,8-dihydro-6H-thiopyrano[3,2-d]pyrimidin-2-yl)amino)piperidin-1-yl)methyl)benzoate]
CC50 at 5 days [1]: 65300 ± 39800 nM
EC50 [2]: 4830 ± 517 nM
EC50 [3]: 14.8 ± 13.5 nM

Cc1cc(C#N)cc(C)c1Oc1nc(NC2CCN(Cc3ccc(N)cc3)CC2)nc2c1SCCC2 [23f, 4-((2-((1-(4-Aminobenzyl)piperidin-4-yl)amino)-7,8-dihydro-6H-thiopyrano[3,2-d]pyrimidin-4-yl)oxy)-3,5-dimethylbenzonitrile]
CC50 at 5 days [1]: 12000 ± 6470 nM
EC50 [4]: 26.1 ± 3.53 nM
RF Y188L [4]: 3.7
SI Y188L [4]: 460
EC50 [5]: 14.7 ± 1.17 nM
RF Y181C [5]: 2.1
SI Y181C [5]: 816
EC50 [6]: 55.6 ± 2.68 nM
RF L100I [6]: 7.9
SI L100I [6]: 216
EC50 [7]: 184 ± 8.33 nM
RF F227L + V106A [7]: 26.3
SI F227L + V106A [7]: 65
EC50 [8]: 21.6 ± 0.56 nM
RF E138K [8]: 3.0
SI E138K [8]: 556
EC50 [9]: 8.69 nM
RF K103N [9]: 1.2
SI K103N [9]: 1381
EC50 [2]: 653 ± 236 nM
RF RES056 [2]: 93.3
SI RES056 [2]: 18
EC50 [3]: 7 ± 1.04 nM

Cc1cc(C#N)cc(C)c1Oc1nc(NC2CCN(Cc3ccc(NS(C)(=O)=O)cc3)CC2)nc2c1SCCC2 [23g, N-(4-((4-((4-(4-cyano-2,6-dimethylphenoxy)-7,8-dihydro-6H-thiopyrano[3,2-d]pyrimidin-2-yl)amino)piperidin-1-yl)methyl)phenyl)methanesulfonamide]
CC50 at 5 days [1]: ≥ 3870 nM
EC50 [4]: 12.7 ± 2.99 nM
RF Y188L [4]: 5.4
SI Y188L [4]: ≥ 305
EC50 [5]: ≤ 8.29 nM
RF Y181C [5]: ≤ 3.5
SI Y181C [5]: ≥ 467
EC50 [6]: 28 ± 5.38 nM
RF L100I [6]: 11.8
SI L100I [6]: ≥ 138
EC50 [7]: 165 ± 40.8 nM
RF F227L + V106A [7]: 69.6
SI F227L + V106A [7]: ≥ 23
EC50 [8]: 8.66 ± 0.54 nM
RF E138K [8]: 3.7
SI E138K [8]: ≥ 447
EC50 [9]: 4.59 ± 0.45 nM
RF K103N [9]: 1.9
SI K103N [9]: ≥ 843
EC50 [2]: 326 ± 185 nM
RF RES056 [2]: 138
SI RES056 [2]: ≥ 12
EC50 [3]: 2.37 ± 1.98 nM

Cc1cc(C)c(Oc2nc(NC3CCN(Cc4ccc(S(N)(=O)=O)cc4)CC3)nc3c2SCCC3)c(C)c1 [23i, 4-((4-((4-(Mesityloxy)-7,8-dihydro-6H-thiopyrano[3,2-d]pyrimidin-2-yl)amino)piperidin-1-yl)methyl)benzenesulfonamide]
CC50 at 5 days [1]: ≥ 226000 nM
EC50 [4]: 43 ± 0.26 nM
RF Y188L [4]: 7.9
SI Y188L [4]: ≥ 5256
EC50 [5]: 35.7 ± 5.75 nM
RF Y181C [5]: 6.6
SI Y181C [5]: ≥ 6331
EC50 [6]: 39.2 ± 7.66 nM
RF L100I [6]: 7.2
SI L100I [6]: ≥ 5765
EC50 [7]: 64.7 ± 13.3 nM
RF F227L + V106A [7]: 11.9
SI F227L + V106A [7]: ≥ 3493
EC50 [8]: 37.6 ± 7.41 nM
RF E138K [8]: 6.9
SI E138K [8]: ≥ 6011
EC50 [9]: 6.56 ± 1.07 nM
RF K103N [9]: 1.2
SI K103N [9]: ≥ 34,451
EC50 [2]: 442 ± 272 nM
RF RES056 [2]: 81.4
SI RES056 [2]: ≥ 511
EC50 [3]: 5.43 ± 4.4 nM

Cc1cc(C#N)cc(C)c1Oc1nc(NC2CCN(c3cccc(C(N)=O)c3)CC2)nc2c1SCCC2 [27b, 3-(4-((4-(4-Cyano-2,6-dimethylphenoxy)-7,8-dihydro-6H-thiopyrano[3,2-d]pyrimidin-2-yl)amino)piperidin-1-yl)benzamide]
CC50 at 5 days [1]: 5990 ± 2950 nM
EC50 [4]: 7.14 ± 1.5 nM
RF Y188L [4]: 1.9
SI Y188L [4]: 839
EC50 [5]: 7.87 ± 1.84 nM
RF Y181C [5]: 2.1
SI Y181C [5]: 761
EC50 [6]: 13.3 ± 6.79 nM
RF L100I [6]: 3.5
SI L100I [6]: 450
EC50 [7]: 111 ± 11.4 nM
RF F227L + V106A [7]: 29.5
SI F227L + V106A [7]: 54
EC50 [8]: 17.1 ± 4.42 nM
RF E138K [8]: 4.5
SI E138K [8]: 350
EC50 [9]: 5.46 nM
RF K103N [9]: 1.5
SI K103N [9]: 1097
EC50 [2]: 24.5 ± 8.11 nM
RF RES056 [2]: 6.5
SI RES056 [2]: 244
EC50 [3]: 3.76 ± 2.29 nM

O=C1Nc2ccc(Cl)cc2[C@@](C#CC2CC2)(C(F)(F)F)O1 [EFV, efavirenz, reference compound]
CC50 at 5 days [1]: > 6340 nM
EC50 [4]: 93.2 ± 58.9 nM
EC50 [5]: 4.94 ± 1.75 nM
EC50 [6]: 57.4 ± 45.9 nM
EC50 [7]: 77.4 ± 55.9 nM
EC50 [8]: 4.67 ± 1.38 nM
EC50 [9]: 99.2 ± 56.8 nM
EC50 [2]: 114 ± 55.6 nM
EC50 [3]: 2.67 ± 1.73 nM

Cc1cc(C#N)cc(C)c1Oc1nc(NCCN2CCOCC2)nc2c1SCCC2 [compound 20d, 3,5-Dimethyl-4-((2-((2-morpholinoethyl)amino)-7,8-dihydro-6H-thiopyrano[3,2-d]pyrimidin-4-yl)oxy)benzonitrile]
CC50 at 5 days [1]: 20500 ± 11300 nM
EC50 [3]: 5690 ± 4760 nM

Cc1cc(C#N)cc(C)c1Oc1nc(NC2CCN(Cc3cccc(C#N)c3)CC2)nc2c1SCCC2 [compound 23b, 4-((2-((1-(3-Cyanobenzyl)piperidin-4-yl)amino)-7,8-dihydro-6H-thiopyrano[3,2-d]pyrimidin-4-yl)oxy)-3,5-dimethylbenzonitrile]
CC50 at 5 days [1]: 3780 ± 630 nM
EC50 [2]: 764 ± 86.1 nM
EC50 [3]: 6 ± 1.03 nM

Cc1cc(C#N)cc(C)c1Oc1nc(NC2CCN(c3cccc(C#N)c3)CC2)nc2c1SCCC2 [compound 27a, 4-((2-((1-(3-Cyanophenyl)piperidin-4-yl)amino)-7,8-dihydro-6H-thiopyrano[3,2-d]pyrimidin-4-yl)oxy)-3,5-dimethylbenzonitrile]
CC50 at 5 days [1]: 8390 ± 5220 nM
EC50 [2]: 836 ± 290 nM
EC50 [3]: 10.2 ± 7.57 nM
